Results taken from the kinase profiling compilation of Christmann-Franck et al. (2016).
“And” between values parts separate entries of the source, which are not always exact repeats. Equal entries are not always repeated.

What was measured:
Assay in all cases: radiometric filter-binding kinase assay, Kinase HotSpot
Conditions in all cases: compound 0.5 µM; ATP 10 µM
[1] = target: JAK1 JH1 catalytic (human) (UniProt P23458)
[2] = target: FGFR2 (human) (UniProt P21802)
[3] = target: PNCK (human) (UniProt Q6P2M8)
[4] = target: PTK2 (human) (UniProt Q05397)
[5] = target: KIT (human) (UniProt P10721)
[6] = target: MELK (human) (UniProt Q14680)
[7] = target: SRPK1 (human) (UniProt Q96SB4)
[8] = target: CAMK1 (human) (UniProt Q14012)
[9] = target: TTK (human) (UniProt P33981)
[10] = target: NEK11 (human) (UniProt Q8NG66)
[11] = target: NEK1 (human) (UniProt Q96PY6)
[12] = target: ULK1 (human) (UniProt O75385)
[13] = target: RPS6KA5 KD2 (human) (UniProt O75582)
[14] = target: PAK6 (human) (UniProt Q9NQU5)
[15] = target: PRKCH (human) (UniProt P24723)
[16] = target: MLTK (human) (UniProt Q9NYL2)
[17] = target: MAPK9 (human) (UniProt P45984)
[18] = target: CDK9 CCNT1 (human) (UniProt P50750+O60563)
[19] = target: PHKG2 (human) (UniProt P15735)
[20] = target: MAP3K11 (human) (UniProt Q16584)
[21] = target: LTK (human) (UniProt P29376)
[22] = target: LYN (human) (UniProt P07948)
[23] = target: NUAK1 (human) (UniProt O60285)
[24] = target: SRMS (human) (UniProt Q9H3Y6)
[25] = target: EPHB1 (human) (UniProt P54762)
[26] = target: NTRK2 (human) (UniProt Q16620)
[27] = target: PTK6 (human) (UniProt Q13882)
[28] = target: STK24 (human) (UniProt Q9Y6E0)
[29] = target: PRKG1 (human) (UniProt Q13976)
[30] = target: RPS6KA1 KD1 KD2 (human) (UniProt Q15418)
[31] = target: FYN (human) (UniProt P06241)
[32] = target: NEK3 (human) (UniProt P51956)
[33] = target: RET (human) (UniProt P07949)
[34] = target: NTRK3 (human) (UniProt Q16288)
[35] = target: RPS6KB2 (human) (UniProt Q9UBS0)
[36] = target: CLK4 (human) (UniProt Q9HAZ1)
[37] = target: ADRBK1 (human) (UniProt P25098)
[38] = target: KDR (human) (UniProt P35968)
[39] = target: CDK6 CCND1 (human) (UniProt Q00534+P24385)
[40] = target: MAPK3 (human) (UniProt P27361)
[41] = target: CSNK1A1 (human) (UniProt P48729)
[42] = target: SRPK2 (human) (UniProt P78362)

TTK (human), sequence (P33981 whole entry, looked up): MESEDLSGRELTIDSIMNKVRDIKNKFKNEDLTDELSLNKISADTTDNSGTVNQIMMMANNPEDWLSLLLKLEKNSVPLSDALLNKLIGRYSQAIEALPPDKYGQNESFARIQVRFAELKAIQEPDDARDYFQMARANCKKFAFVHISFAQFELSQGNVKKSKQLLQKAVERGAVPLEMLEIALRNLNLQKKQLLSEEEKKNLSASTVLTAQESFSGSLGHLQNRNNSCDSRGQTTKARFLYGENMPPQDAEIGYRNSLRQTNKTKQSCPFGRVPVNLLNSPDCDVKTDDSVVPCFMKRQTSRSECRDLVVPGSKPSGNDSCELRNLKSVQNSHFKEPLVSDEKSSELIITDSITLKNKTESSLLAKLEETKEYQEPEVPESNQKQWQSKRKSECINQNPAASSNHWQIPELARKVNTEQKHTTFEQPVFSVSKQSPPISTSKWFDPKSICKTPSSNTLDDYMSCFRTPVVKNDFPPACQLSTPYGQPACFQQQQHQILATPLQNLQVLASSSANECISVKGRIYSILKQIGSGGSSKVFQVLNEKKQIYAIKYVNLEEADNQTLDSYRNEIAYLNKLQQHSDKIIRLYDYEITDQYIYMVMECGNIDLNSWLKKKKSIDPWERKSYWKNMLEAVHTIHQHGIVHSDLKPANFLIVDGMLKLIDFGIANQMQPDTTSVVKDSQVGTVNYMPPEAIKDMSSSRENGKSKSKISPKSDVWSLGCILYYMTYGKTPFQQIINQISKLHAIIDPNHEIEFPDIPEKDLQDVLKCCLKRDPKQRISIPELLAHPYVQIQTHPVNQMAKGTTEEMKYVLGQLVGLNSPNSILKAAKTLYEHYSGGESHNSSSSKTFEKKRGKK
RET (human), sequence (P07949 whole entry, looked up): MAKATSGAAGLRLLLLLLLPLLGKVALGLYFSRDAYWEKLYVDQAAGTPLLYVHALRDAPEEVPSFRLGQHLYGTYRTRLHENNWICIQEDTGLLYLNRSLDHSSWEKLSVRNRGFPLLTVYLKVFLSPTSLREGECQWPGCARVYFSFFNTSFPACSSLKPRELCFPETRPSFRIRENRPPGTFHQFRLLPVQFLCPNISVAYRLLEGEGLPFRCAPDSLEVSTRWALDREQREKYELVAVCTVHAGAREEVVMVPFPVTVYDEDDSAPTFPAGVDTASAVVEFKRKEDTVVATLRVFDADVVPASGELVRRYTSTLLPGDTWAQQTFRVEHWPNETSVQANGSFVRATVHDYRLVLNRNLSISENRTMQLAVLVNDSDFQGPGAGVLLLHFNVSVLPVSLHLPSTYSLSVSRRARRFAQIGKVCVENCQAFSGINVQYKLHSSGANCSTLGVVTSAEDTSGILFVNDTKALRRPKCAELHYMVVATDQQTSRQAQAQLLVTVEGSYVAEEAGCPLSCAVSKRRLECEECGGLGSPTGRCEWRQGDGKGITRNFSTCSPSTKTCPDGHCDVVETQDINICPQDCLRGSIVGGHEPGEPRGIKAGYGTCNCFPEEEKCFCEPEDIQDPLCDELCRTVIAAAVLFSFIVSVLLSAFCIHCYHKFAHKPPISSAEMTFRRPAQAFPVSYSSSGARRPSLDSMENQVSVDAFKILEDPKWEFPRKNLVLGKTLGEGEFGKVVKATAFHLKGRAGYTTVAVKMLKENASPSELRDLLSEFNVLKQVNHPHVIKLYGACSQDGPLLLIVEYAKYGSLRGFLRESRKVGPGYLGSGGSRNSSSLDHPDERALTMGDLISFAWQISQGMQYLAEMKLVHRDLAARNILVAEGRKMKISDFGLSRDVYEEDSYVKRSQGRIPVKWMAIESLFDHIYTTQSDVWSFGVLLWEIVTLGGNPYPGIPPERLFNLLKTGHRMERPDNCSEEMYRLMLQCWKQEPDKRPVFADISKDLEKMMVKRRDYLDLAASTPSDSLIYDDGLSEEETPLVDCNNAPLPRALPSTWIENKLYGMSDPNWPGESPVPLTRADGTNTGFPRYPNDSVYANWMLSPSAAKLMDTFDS
ULK1 (human), sequence (O75385 whole entry, looked up): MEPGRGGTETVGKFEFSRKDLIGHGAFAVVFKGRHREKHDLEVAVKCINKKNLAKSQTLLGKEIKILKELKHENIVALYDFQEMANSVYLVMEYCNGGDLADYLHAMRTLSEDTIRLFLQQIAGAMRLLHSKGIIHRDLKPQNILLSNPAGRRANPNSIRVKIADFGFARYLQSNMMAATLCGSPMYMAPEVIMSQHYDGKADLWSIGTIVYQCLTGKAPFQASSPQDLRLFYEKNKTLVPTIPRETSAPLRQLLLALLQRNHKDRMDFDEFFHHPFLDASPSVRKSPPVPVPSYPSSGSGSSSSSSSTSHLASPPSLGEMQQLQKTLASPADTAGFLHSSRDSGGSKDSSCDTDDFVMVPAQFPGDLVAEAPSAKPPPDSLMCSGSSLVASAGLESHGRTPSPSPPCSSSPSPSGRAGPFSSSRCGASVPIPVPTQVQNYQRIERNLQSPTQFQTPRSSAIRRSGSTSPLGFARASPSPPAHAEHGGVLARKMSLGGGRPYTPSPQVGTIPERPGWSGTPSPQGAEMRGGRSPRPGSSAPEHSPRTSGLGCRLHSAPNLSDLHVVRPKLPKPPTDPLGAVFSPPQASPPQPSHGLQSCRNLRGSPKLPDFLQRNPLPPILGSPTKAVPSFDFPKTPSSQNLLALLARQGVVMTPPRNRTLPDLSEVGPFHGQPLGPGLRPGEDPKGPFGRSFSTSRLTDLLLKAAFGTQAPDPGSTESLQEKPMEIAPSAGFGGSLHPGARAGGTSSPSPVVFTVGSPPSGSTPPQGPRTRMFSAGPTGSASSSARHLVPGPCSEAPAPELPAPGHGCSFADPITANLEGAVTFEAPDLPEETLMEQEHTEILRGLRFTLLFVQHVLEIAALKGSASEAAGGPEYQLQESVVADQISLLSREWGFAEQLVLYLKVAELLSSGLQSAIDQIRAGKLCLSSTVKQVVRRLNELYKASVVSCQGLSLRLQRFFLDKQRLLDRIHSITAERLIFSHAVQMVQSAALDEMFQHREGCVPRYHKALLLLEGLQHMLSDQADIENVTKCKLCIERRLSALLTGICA
RPS6KA5 KD2 (human), sequence (O75582 whole entry, looked up): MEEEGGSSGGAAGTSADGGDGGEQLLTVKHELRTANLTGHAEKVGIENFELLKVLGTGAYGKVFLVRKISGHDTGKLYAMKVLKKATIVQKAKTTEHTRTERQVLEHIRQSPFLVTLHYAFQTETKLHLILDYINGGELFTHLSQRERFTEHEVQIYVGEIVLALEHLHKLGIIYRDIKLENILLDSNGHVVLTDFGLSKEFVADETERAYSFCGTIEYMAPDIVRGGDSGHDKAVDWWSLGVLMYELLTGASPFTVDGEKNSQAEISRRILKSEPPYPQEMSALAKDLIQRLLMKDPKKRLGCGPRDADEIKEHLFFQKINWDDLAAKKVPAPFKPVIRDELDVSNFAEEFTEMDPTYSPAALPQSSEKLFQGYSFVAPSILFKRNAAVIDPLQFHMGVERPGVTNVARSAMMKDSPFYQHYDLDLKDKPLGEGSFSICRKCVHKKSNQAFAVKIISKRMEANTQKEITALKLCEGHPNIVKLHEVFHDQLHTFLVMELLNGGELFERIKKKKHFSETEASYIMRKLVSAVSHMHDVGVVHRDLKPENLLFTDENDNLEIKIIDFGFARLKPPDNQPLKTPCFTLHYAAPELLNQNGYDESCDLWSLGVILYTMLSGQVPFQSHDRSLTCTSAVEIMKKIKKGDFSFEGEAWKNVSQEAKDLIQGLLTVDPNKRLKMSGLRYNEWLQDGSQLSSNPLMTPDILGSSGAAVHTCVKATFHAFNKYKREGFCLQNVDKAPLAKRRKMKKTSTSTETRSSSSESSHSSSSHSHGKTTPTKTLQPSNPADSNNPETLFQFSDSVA
NUAK1 (human), sequence (O60285 whole entry, looked up): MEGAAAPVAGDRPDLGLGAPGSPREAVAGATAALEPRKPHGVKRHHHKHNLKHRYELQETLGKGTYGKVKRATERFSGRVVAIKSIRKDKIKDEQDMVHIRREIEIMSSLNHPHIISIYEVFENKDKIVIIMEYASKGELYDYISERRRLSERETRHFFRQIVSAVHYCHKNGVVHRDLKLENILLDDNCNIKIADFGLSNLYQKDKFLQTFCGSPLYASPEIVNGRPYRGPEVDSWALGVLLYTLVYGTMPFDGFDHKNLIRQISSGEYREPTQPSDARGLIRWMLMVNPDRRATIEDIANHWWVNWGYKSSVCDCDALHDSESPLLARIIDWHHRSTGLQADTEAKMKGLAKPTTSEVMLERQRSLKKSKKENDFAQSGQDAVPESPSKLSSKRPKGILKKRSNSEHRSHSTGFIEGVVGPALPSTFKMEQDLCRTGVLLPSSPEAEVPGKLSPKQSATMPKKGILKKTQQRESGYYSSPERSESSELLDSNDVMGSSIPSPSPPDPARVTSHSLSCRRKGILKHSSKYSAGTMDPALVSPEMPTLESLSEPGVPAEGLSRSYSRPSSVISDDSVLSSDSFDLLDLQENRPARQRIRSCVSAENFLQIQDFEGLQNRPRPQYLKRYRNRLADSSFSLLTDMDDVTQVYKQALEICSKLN
PHKG2 (human), sequence (P15735 whole entry, looked up): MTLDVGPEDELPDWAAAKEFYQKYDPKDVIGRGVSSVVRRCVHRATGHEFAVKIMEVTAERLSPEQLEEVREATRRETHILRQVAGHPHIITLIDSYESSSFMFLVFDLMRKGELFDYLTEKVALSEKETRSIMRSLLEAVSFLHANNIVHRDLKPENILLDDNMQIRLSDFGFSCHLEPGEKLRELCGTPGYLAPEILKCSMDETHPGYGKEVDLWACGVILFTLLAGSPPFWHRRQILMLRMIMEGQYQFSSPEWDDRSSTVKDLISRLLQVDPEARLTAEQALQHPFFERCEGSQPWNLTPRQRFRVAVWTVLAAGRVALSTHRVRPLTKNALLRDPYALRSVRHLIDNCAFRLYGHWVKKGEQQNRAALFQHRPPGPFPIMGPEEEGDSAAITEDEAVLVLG

NC(=O)c1ccc(N(C(N)=O)c2c(F)cccc2F)nc1-c1ccc(F)cc1F
residual activity [1]: 98.8% | residual activity [2]: 99.5% | residual activity [3]: 108% | residual activity [4]: 98.9% | residual activity [5]: 97.7% | residual activity [6]: 87.1% | residual activity [7]: 99% | residual activity [8]: 98.1% | residual activity [9]: 98.8% | residual activity [10]: 92.9% | residual activity [11]: 69.6% | residual activity [12]: 104% | residual activity [13]: 92.8% | residual activity [14]: 103% | residual activity [15]: 112% | residual activity [16]: 97.9% | residual activity [17]: 93.5% | residual activity [18]: 96.7% | residual activity [19]: 93.1% | residual activity [20]: 105% | residual activity [21]: 95% | residual activity [22]: 106% and 98.1% | residual activity [23]: 108% | residual activity [24]: 92.9% | residual activity [25]: 100% | residual activity [26]: 102% | residual activity [27]: 98.7% | residual activity [28]: 105% | residual activity [29]: 88.1% and 95.7% | residual activity [30]: 109% | residual activity [31]: 110% | residual activity [32]: 96% | residual activity [33]: 93.1% | residual activity [34]: 95.9% | residual activity [35]: 100% | residual activity [36]: 114% | residual activity [37]: 99% | residual activity [38]: 96.5% | residual activity [39]: 95.1% | residual activity [40]: 95.2%

O=C1Cc2c([nH]c3ccc([N+](=O)[O-])cc23)-c2ccccc2N1
residual activity [1]: 97.8% | residual activity [2]: 96.7% | residual activity [3]: 107% | residual activity [41]: 103% | residual activity [4]: 88.1% | residual activity [5]: 83.7% | residual activity [6]: 71.7% | residual activity [7]: 100% | residual activity [8]: 94.8% | residual activity [9]: 87.4% | residual activity [10]: 95.4% | residual activity [11]: 105% | residual activity [12]: 85.1% | residual activity [13]: 107% | residual activity [14]: 101% | residual activity [15]: 96.9% | residual activity [17]: 97.2% | residual activity [18]: 22.6% | residual activity [19]: 101% | residual activity [20]: 11.8% | residual activity [21]: 93.9% | residual activity [23]: 12% | residual activity [24]: 92.9% | residual activity [25]: 112% | residual activity [26]: 86.1% | residual activity [27]: 92.7% | residual activity [28]: 66.4% | residual activity [29]: 94.3% and 96.8% | residual activity [30]: 89.7% | residual activity [31]: 53.1% | residual activity [32]: 108% | residual activity [33]: 81.6% | residual activity [34]: 63.4% | residual activity [35]: 96.5% | residual activity [36]: 86.4% | residual activity [37]: 91.8% | residual activity [38]: 87.8% | residual activity [39]: 16.8% | residual activity [40]: 93.5% | residual activity [42]: 109%

CS(=O)c1ccc(-c2nc(-c3ccc(F)cc3)c(-c3ccncc3)[nH]2)cc1 (stereo unspecified)
residual activity [1]: 105% | residual activity [2]: 103% | residual activity [3]: 102% | residual activity [41]: 63.9% | residual activity [4]: 95.5% | residual activity [5]: 91.3% | residual activity [6]: 102% | residual activity [7]: 99.5% | residual activity [8]: 106% | residual activity [9]: 99.9% | residual activity [10]: 81.3% | residual activity [11]: 94.7% | residual activity [12]: 89.3% | residual activity [13]: 103% | residual activity [14]: 76.7% | residual activity [16]: 100% | residual activity [17]: 100% | residual activity [18]: 83.8% | residual activity [19]: 102% | residual activity [20]: 96.4% | residual activity [21]: 101% | residual activity [22]: 91.8% and 99.1% | residual activity [23]: 94.4% | residual activity [24]: 102% | residual activity [25]: 93% | residual activity [26]: 104% | residual activity [27]: 54.2% | residual activity [28]: 99% | residual activity [29]: 88.8% and 94.3% | residual activity [30]: 99.9% | residual activity [31]: 89.8% | residual activity [32]: 92.2% | residual activity [33]: 85.1% | residual activity [34]: 98% | residual activity [35]: 97.2% | residual activity [36]: 98.7% | residual activity [37]: 101% | residual activity [38]: 99.2% | residual activity [39]: 100% | residual activity [40]: 101% | residual activity [42]: 102%
